Data taken from US9713613B2, “Methods and compositions for the treatment of cancer and related hyperproliferative disorders” (priority 2007, dated 2017).

Tests used:
SREBP-2 = test: Western blot analysis of SREBP processing in CHO-K1 cells; type: cell-based, Chinese hamster
Text: (§1) To determine if fatostatin affects the ER-Golgi translocation and proteolytic processing of SREBPs, a reporter assay developed by Sakai et al. (1998) was used. PLAP-BP2 in transfected CHO-K1 cells remains membrane-bound unless it is cleaved by S1P in the Golgi and secreted into the culture medium. In the assay, a secreted alkaline phosphatase, fused with an SREBP-2 fragment lacking the NH2-terminal DNA-binding domain (PLAP-BP2513-1141), permits monitoring of translocation and processing through changes in the fluorescence of a fluorogenic phosphatase substrate (FIG. 18C). When cells were co-transfected with plasmids encoding PLAP-BP2513-1141 and SCAP, PLAP phosphatase was secreted, generating fluorescence signals. […] The fatostatin-mediated inhibition of SREBP activation was confirmed by western blot analysis of SREBPs. […] Similar results were obtained for SREBP-1 (FIG. 22).
Western blot analysis of SREBP processing. […] The protein concentration of each total cell extract was measured (BCA kit; Pierce), after which a 22-33 μg aliquot of cell extract was mixed with 0.25 volume of buffer (250 mM Tris-HCl, pH 6.8, 10% SDS, 25% glycerol, 0.2% (w/v) bromophenol blue, and 5% (v/v) 2-mercaptoethanol), heated for 7 min at 95° C. […]

PLAP-BP2 = PLAP-BP2 cleavage assay in CHO-K1 cells; type: cell-based, Chinese hamster; details: 20 μM
Text: as §1
PLAP-BP2 Cleavage. On day 0, CHO-K1 cells were plated out onto a 96-well plate in medium A. On day 2, the cells were transiently co-transfected with pCMV-PLAP-BP2(513-1141), pCMV-SCAP and pAc-β-gal, using Lipofectamine reagent (Invitrogen). […]

mice (129Sv background) = test: mice, 48 hrs fasting / 48 hrs refeeding fat free diet; type: in vivo
Experimental: The drug-like chemical structure of fatostatin A prompted the inventors to investigate its ability to inhibit SREBP-1 in the liver of whole animals. The effect of fatostatin A on hepatic SREBP-1 under lipogenic conditions of prolonged fasting (48 hours) followed by feeding fat free high carbohydrate diet for another 48 hours was examined. Mice were intraperitoneally injected with fatostatin A at 30 mg/kg/day for 5 days starting one day prior to the 48-hour fasting period. After 48 hours of fasting, the treated group lost more weight than the control group did (6.12±0.6 compared to 4.9±0.3 gram/mouse; p=0.01.) (FIG. 6A).
The expression levels of SREBP-1 in the liver extracts were examined by western blots. […] The hepatic expression of fatty acid synthase (FAS), a representative of SREBP-1-responsive lipogenic enzymes (Boizard et al., 1998), was also determined after the treatment. […] The activity of acetyl-CoA carboxylase (ACC) (FIG. 6F), which is also regulated by SREBP-1, decreased in liver extracts as observed for FAS (FIG. 6G).
Male mice (129Sv background) were housed under controlled conditions (12-hr light/dark cycle; 25° C.) in the Animal Care Center at Baylor College of Medicine and had ad libitum access to standard laboratory chow (Purina Mills) and water. Fatostatin A was administered intraperitoneally (30 mg/kg; 150 μL) to 5-6 month old male mice (129Sv background) using two different protocols. First protocol involves fasting the mice for 48 hrs, followed by refeeding fat free diet for another 48 hrs. This treatment induces both activities and levels of lipogenic enzymes such as ACC and FAS in addition to SREBPs. The administration of fatostatin A or 10% DMSO in PBS to control groups (n=5) started 24 hrs before the fasting and continued daily until the end of the experiment.
In the second protocol, two groups of male mice (n=5) were treated daily for two weeks with either 30 mg/kg fatostatin A or 10% DMSO in PBS. Food intake and body weight were measured daily. At the end of the experiments, the mice were briefly fasted for 4-5 hrs, and their blood was withdrawn for determination of serum constituents. The mice were then sacrificed, and their livers were quickly removed and ground to powder in liquid nitrogen. The powdered tissues were suspended in 10 ml of PBS containing 0.1 mM PMSF, 5 mM benzamidine, and 5 mg/mL protease inhibitor cocktail (Roche), homogenized using Polytron (3×30 Sec, at a high speed), and sonicated briefly to degrade DNA. The extracts were clarified by centrifugation at 16,000×g for 20 min. The samples were then subjected to western blot analysis using commercially available antibodies against FAS and SREBP-1. FAS and ACC activities were determined as described earlier (Mao et al., 2006).

CCCc1cc(-c2nc(-c3ccc(C)cc3)cs2)ccn1 [Compound 1, 2-propyl-4-(4-p-tolylthiazol-2-yl)pyridine]
amounts of mature and precursor forms of SREBP-2 (western blot) (SREBP-2): decreased the amount of the 68 KDa mature form of SREBP-2
secretion of PLAP phosphatase (PLAP-BP2 cleavage) (PLAP-BP2): decreased
decrease of FAS expression level in liver extracts (western blot) (mice (129Sv background); 30 mg/kg/day ip): up to 30%
food intake and toxicity during the treatment (mice (129Sv background); 30 mg/kg/day ip for 5 days): No reduction of food intake or obvious toxicity
weight lost after 48 hours of fasting (mice (129Sv background); 30 mg/kg/day ip, control 4.9±0.3): 6.12±0.6 gram/mouse
serum glucose (mice (129Sv background); after 48 hours of refeeding fat free high carbohydrate diet, control 137±14): 110 ± 23 mg/dL
serum LDL (mice (129Sv background); after 48 hours of refeeding, control 30±6): 16 ± 5 mg/dL
serum cholesterol (mice (129Sv background); after 48 hours of refeeding, control 120±19): 93 ± 20 mg/dL
